{
  "source": "patent US20120225862A1",
  "about": "“HETEROARYL BENZAMIDES, COMPOSITIONS AND METHODS OF USE” (AUCKLAND UNIVSERVICES LIMITED, priority 2009, published 2012)",
  "key": {"Aurora-A": {"biological_target": "T1, Aurora-A (Homo sapiens, UniProt O14965)", "T1 construct": "purchased Millipore (KinaseProfiler service)", "T1 sequence (O14965 whole entry)": "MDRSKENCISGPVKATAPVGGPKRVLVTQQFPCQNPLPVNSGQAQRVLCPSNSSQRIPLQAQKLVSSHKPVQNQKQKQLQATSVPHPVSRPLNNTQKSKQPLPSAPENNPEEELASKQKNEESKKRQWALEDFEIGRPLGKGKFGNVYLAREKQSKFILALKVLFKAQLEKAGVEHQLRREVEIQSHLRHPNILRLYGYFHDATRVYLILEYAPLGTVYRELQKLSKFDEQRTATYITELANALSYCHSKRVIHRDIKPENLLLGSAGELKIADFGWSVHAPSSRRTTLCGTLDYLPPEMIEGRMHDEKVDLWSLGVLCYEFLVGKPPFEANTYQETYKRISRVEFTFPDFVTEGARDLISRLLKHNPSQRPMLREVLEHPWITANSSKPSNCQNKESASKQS", "test": "In vitro kinase activity (Millipore KinaseProfiler): Aurora-A", "assay_type": "biochemical", "details": "no head or unit printed", "description": "(§1) All cells were grown in DMEM+10% FCS. ACHN and ACHN shVHL were a kind gift from George V. Thomas (UCLA). HIF overexpressing clones were described previously. Transfection of RNA oligos were performed with DnarmaFECT Reagent 1 (Dharmcon), according to manufacturer's directions. ON-TARGETplus SMART pools against HIF-1β/ARNT were purchased from Dharmacon. Glut1 was detected with anti-GLUT1 antibody from NeoMarkers/LabVision/Fisher. Pyruvate/lactate levels and hexokinase activity were both measured by fluorometric assay (BioVision and Sigma-Aldrich, respectively). ATP levels were measured by bioluminescence assay (ATP Determination Kit from Molecular Probes/Invitrogen). In vitro kinase activities were performed by Millipore KinaseProfiler. Affi-Gel 10 (BioRad) activated affinity media was coupled to analogs to generate immobilized affinity linkers.\n(§2) We next wanted to investigate the differential glucose uptake between RCCs with and without VHL treated with compound 47 that subsequently lead to the selective death of VHL-deficient cells. We first examined the message levels of the two main glucose transporters, GLUT1 and GLUT2 by quantitative real-time PCR. GLUT1 is an inducible, high-affinity glucose transporter, while GLUT2 is the glucose transporter responsible for basal glucose uptake. […] Cells deficient in VHL had very low levels of GLUT2 that could barely be detected (FIG. 3J). […]"}, "CHK1": {"biological_target": "T2, CHK1 (Homo sapiens, UniProt O14757)", "T2 construct": "purchased Millipore (KinaseProfiler service)", "T2 sequence (O14757 whole entry, species assumed)": "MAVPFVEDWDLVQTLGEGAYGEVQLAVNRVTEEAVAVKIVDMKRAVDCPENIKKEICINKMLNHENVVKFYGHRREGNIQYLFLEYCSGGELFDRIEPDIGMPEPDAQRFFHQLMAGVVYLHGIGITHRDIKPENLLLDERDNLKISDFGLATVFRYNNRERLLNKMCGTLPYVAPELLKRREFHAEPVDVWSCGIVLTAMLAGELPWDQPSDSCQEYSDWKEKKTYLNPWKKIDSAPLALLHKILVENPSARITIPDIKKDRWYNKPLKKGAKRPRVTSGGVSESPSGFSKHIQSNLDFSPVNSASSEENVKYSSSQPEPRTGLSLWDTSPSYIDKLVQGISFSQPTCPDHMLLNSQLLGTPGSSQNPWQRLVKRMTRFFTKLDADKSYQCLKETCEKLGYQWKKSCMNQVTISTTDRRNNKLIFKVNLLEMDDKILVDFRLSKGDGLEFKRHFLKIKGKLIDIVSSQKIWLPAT", "test": "In vitro kinase activity (Millipore KinaseProfiler): CHK1", "assay_type": "biochemical", "details": "no head or unit printed", "description": "as §1, §2"}, "MKK4": {"biological_target": "T3, MKK4 (Mus musculus, UniProt P47809)", "T3 construct": "purchased Millipore (KinaseProfiler service)", "T3 sequence (P47809 2-397 limits assumed)": "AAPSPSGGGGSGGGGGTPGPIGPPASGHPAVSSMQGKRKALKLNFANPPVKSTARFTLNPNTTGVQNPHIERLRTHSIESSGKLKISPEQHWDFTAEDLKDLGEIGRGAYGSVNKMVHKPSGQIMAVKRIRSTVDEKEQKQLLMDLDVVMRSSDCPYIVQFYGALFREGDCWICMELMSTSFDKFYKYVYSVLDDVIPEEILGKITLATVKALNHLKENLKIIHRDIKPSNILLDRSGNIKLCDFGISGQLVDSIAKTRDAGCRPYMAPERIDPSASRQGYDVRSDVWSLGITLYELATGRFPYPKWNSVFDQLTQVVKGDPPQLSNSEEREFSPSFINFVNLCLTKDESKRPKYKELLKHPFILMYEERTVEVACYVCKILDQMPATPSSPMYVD", "test": "In vitro kinase activity (Millipore KinaseProfiler): MKK4", "assay_type": "biochemical", "details": "no head or unit printed", "description": "as §1, §2"}, "RCC4/VHL": {"tested_on": "RCC4/VHL", "test": "3H-2-deoxyglucose uptake, RCC4/VHL", "assay_type": "cell-based, human", "details": "5 μM", "description": "One hundred thousand cells were plated into 6-well plates. The following day, the cells were treated with vehicle or drug and incubated for the indicated time. Cells were washed twice in phosphate buffered saline and low glucose media was added for 30 minutes. Cells were then incubated with 0.5 microCi of tritiated-2-deoxyglucose and incubated for an hour at 37° C. Cells were washed twice in PBS and then lysed in 0.2 N NaOH and 0.2% SDS. Lysates were transferred to scintillation tubes with scintillation fluid and quantified by scintillation counter.\nOne hundred thousand cells were plated per well in a six-well plate. The next day, cells were treated with the indicated concentration of drug and incubated for the indicated time. Cells were then washed twice with phosphate-buffered saline, incubated in low-glucose medium for 30 minutes, and ^3H-2-deoxyglucose (0.5 μCi) was added in 1 ml of glucose-free media for an additional hour. Cells were washed twice in PBS and lysed (0.2 N NaOH and 0.2% sodium dodecyl sulfate). Glucose uptake was quantified with a scintillation counter."}, "PAK2": {"biological_target": "T4, PAK2 (Homo sapiens, UniProt Q13177)", "T4 construct": "purchased Millipore (KinaseProfiler service)", "T4 sequence (Q13177 whole entry, species assumed)": "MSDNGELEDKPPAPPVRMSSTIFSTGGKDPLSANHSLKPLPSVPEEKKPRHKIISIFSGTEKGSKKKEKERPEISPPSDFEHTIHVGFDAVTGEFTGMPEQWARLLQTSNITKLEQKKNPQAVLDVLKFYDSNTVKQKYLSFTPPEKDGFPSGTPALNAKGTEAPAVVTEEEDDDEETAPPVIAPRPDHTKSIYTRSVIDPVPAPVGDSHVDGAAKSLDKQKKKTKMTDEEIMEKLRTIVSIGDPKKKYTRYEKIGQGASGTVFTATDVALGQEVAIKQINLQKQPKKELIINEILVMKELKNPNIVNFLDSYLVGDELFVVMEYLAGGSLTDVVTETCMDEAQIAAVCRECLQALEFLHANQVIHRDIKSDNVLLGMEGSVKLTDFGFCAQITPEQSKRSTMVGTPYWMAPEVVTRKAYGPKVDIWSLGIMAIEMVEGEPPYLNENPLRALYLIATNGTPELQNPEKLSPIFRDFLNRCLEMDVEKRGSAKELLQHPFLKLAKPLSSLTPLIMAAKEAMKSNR", "test": "In vitro kinase activity (Millipore KinaseProfiler): PAK2", "assay_type": "biochemical", "details": "no head or unit printed", "description": "as §1, §2"}, "JAK2": {"biological_target": "T5, JAK2 (Homo sapiens, UniProt O60674)", "T5 construct": "purchased Millipore (KinaseProfiler service)", "test": "In vitro kinase activity (Millipore KinaseProfiler): JAK2", "assay_type": "biochemical", "details": "no head or unit printed", "description": "as §1, §2"}, "RCC4": {"tested_on": "RCC4", "test": "Lactate production (glycolysis), RCC4", "assay_type": "cell-based", "details": "Homo sapiens; RCC4, 5 μM, compared to control-treated cells; read-out: inhibition of lactate production in VHL-deficient cells", "description": "as §1\nAs the central mediator of oxygen homeostasis, HIF plays an important role in the cellular adaptation to low oxygen conditions through the regulation of genes involved in metabolism and energy production. Inactivation of VHL results in an increase in the half-life of HIF protein. […] To examine whether this compound alters the rate of glycolysis in VHL-deficient cells, we measured the intracellular production of lactate, which is rapidly converted from pyruvate, the end-product of glycolysis. […]"}, "Met": {"biological_target": "T6, Met (Homo sapiens, UniProt P08581)", "T6 construct": "purchased Millipore (KinaseProfiler service)", "T6 sequence (P08581 25-1390)": "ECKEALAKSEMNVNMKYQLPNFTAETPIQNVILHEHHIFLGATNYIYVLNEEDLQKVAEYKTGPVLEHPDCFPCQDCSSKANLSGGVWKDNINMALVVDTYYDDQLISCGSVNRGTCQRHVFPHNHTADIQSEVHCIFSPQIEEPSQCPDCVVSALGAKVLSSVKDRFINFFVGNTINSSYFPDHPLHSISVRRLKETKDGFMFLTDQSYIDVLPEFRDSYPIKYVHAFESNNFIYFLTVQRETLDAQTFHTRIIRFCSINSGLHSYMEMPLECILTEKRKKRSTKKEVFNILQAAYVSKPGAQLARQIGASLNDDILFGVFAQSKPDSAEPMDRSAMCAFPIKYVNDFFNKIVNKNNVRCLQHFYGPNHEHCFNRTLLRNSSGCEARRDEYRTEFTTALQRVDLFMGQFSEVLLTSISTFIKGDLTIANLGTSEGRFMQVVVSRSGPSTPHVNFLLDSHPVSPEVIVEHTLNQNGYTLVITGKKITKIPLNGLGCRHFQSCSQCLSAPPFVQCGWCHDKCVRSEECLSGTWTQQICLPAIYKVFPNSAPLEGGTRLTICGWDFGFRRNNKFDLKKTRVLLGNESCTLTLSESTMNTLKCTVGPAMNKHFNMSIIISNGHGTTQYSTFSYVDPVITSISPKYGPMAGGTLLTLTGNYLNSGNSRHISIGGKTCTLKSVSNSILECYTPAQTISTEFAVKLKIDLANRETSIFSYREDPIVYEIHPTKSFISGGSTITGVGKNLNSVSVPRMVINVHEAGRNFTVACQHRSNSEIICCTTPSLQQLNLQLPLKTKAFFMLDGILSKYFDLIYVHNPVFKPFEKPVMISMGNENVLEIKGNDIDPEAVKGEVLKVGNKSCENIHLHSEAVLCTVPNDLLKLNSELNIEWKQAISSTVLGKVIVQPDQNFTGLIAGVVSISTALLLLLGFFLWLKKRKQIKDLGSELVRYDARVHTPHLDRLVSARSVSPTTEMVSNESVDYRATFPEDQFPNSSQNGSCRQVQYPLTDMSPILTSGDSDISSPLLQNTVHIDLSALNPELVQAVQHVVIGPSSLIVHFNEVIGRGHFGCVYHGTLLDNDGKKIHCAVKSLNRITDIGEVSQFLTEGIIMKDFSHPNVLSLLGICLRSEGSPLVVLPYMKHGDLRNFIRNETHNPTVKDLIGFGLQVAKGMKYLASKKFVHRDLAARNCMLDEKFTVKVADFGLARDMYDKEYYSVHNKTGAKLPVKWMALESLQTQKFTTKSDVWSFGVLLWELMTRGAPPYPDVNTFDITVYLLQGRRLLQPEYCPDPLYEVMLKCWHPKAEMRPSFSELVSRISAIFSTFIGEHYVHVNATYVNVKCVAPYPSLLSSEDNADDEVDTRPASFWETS", "test": "In vitro kinase activity (Millipore KinaseProfiler): Met", "assay_type": "biochemical", "details": "no head or unit printed", "description": "as §1, §2"}, "RCC4 and RCC4/VHL cells": {"tested_on": "RCC4 and RCC4/VHL cells", "test": "Oxygen consumption (Oxytherm electrode)", "assay_type": "cell-based, human", "details": "5 μM, FIG. 3F", "description": "Following treatment with vehicle or drug, cells were trypsinized, suspended at 5 million cells per ml in DMEM+10% FCS, and oxygen consumption was measured in 0.5 ml volume using an Oxytherm electrode unit (Hansatech)."}, "CaMKI": {"biological_target": "T7, CaMKI (Homo sapiens, UniProt Q14012)", "T7 construct": "purchased Millipore (KinaseProfiler service)", "T7 sequence (Q14012 whole entry)": "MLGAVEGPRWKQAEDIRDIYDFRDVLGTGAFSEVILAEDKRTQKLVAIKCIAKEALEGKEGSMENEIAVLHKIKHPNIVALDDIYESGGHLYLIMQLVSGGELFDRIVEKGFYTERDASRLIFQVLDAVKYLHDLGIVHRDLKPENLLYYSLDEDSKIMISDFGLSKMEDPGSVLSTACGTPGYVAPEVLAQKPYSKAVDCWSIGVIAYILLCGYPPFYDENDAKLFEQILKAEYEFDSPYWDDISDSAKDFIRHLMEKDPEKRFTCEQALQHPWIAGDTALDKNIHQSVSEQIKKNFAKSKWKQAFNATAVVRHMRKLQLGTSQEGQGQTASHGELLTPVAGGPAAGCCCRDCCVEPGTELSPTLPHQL", "test": "In vitro kinase activity (Millipore KinaseProfiler): CaMKI", "assay_type": "biochemical", "details": "no head or unit printed", "description": "as §1, §2"}, "Axl": {"biological_target": "T8, Axl (Homo sapiens, UniProt P30530)", "T8 construct": "purchased Millipore (KinaseProfiler service)", "T8 sequence (P30530 26-894, species assumed)": "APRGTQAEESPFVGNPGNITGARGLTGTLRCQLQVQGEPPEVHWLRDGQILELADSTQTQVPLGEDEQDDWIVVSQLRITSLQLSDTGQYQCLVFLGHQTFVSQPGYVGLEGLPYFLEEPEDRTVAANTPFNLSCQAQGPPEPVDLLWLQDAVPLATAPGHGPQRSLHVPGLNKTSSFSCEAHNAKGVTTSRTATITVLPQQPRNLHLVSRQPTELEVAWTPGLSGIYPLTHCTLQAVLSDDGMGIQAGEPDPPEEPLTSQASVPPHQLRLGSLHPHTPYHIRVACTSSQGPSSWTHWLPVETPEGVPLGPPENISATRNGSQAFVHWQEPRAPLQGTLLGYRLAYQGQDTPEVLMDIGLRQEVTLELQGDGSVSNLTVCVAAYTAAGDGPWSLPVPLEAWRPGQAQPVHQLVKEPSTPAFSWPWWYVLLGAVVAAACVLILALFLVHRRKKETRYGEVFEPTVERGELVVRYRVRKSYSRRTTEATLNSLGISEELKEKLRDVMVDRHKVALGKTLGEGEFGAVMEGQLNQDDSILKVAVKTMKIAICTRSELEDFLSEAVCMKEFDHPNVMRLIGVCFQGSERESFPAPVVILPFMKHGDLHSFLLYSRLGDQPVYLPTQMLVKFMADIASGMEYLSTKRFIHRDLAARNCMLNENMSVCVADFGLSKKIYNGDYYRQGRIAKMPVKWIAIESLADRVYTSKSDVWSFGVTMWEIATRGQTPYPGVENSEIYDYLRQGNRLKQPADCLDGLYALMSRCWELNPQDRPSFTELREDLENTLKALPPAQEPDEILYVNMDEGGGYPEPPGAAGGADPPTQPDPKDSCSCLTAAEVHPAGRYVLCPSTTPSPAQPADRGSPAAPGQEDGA", "test": "In vitro kinase activity (Millipore KinaseProfiler): Axl", "assay_type": "biochemical", "details": "no head or unit printed", "description": "as §1, §2"}},
  "data": [
    {"smiles": "CC(C)(C)c1ccc(S(=O)(=O)NCc2ccc(C(=O)Nc3cccnc3)cc2)cc1", "note": "[Example 38, 4-((4-tert-Butylphenylsulfonamido)methyl)-N-(pyridin-3-yl)benzamide]", "values": [
      {"measurement": "Aurora-A kinase activity", "setting": "Aurora-A", "result": 108, "unit": "%"},
      {"measurement": "CHK1 kinase activity", "setting": "CHK1", "result": 114},
      {"measurement": "MKK4 kinase activity", "setting": "MKK4", "result": 128},
      {"measurement": "glucose uptake in RCC4/VHL cells", "setting": "RCC4/VHL", "result": "unaffected"},
      {"measurement": "PAK2 kinase activity", "setting": "PAK2", "result": 97, "unit": "%"},
      {"measurement": "JAK2 kinase activity", "setting": "JAK2", "result": 113},
      {"measurement": "inhibition at 5 µM", "setting": "RCC4", "result": "~60", "unit": "%"},
      {"measurement": "Met kinase activity", "setting": "Met", "result": 105},
      {"measurement": "oxygen consumption, treated vs untreated cells", "setting": "RCC4 and RCC4/VHL cells", "result": "no difference in oxygen consumption"},
      {"measurement": "CaMKI kinase activity", "setting": "CaMKI", "result": 87},
      {"measurement": "Axl kinase activity", "setting": "Axl", "result": 87}
    ]}
  ]
}
